Data set [1] has as its system human red blood cells (hRBC). In words: Hemolysis of human red blood cells. It is filed as cell-based. The conditions noted are these: red cells of human, 1 h. Put shortly:
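PBS-washed human red blood cells (20% v/v) were incubated with peptide at 200 μg/mL for 1 h at 37 °C with shaking. Supernatant OD was read at 540 nm after 8-fold dilution. Hemolysis is expressed as percent of the water control.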

The subject of data set [2] is Klebsiella pneumoniae SSI3010. The conditions noted are these: SSI3010. Put shortly: (§1)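 Two-fold serial dilutions of peptide, in water with polysorbate 80 (0.002% final), met bacteria adjusted to 0.5 McFarland then diluted to about 5×10^5 CFU/mL. Medium was cation-adjusted Mueller-Hinton II broth; peptide stocks were 1 mg/mL in sterile water.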
For data set [3], the system named is Escherichia coli MCR-1 Af 45. The following applies: MCR-1 Af 45. Put shortly:
as §1

For data set [4], the system named is Escherichia coli ATCC 25922. The following applies: ATCC 25922. In a few lines:
as §1

Bridge positions count the residues as written; N and C are the ends. Square brackets hold non-standard residues; d marks the D form. Peptide text beside a SMILES is read from it. Gly(N-2-aminoethyl) = NCCNCC(=O)O; Hyp = O=C(O)[C@@H]1C[C@@H](O)CN1; Gly(N(CH2)3NH2) = NCCCNCC(=O)O; Pen = CC(C)(S)[C@H](N)C(=O)O; dDab = NCC[C@@H](N)C(=O)O; Dab = NCC[C@H](N)C(=O)O; Nlys = NCCCCNCC(=O)O

Take `CC[C@H](C)[C@H](NC(=O)CN(CCN)C(=O)[C@@H](NC(=O)[C@@H]1C[C@@H](O)CN1C(=O)CNCCCN)C(C)C)C(=O)N[C@H](C(=O)N[C@@H](Cc1ccc(O)cc1)C(=O)N[C@@H]1C(=O)N[C@@H](CC(N)=O)C(=O)N[C@@H](CCCNC(=N)N)C(=O)N[C@@H](CCN)C(=O)N[C@@H]([C@@H](C)O)C(=O)N[C@H](CCN)C(=O)N[C@@H](CCCCN)C(=O)N[C@H](C(=O)N[C@@H](CCN)C(=O)N[C@@H](CCCNC(=N)N)C(=O)N[C@@H](Cc2ccc(O)cc2)C(=O)O)CSSC1(C)C)[C@@H](C)O` [Example 48, Norn-Hyp-Val-Ndab-Ile-Thr-Tyr-Pen-Asn-Arg-Dab-Thr-^DDab-Lys-Cys-Dab-Arg-Tyr] (H-[Gly(N(CH2)3NH2)][Hyp]V[Gly(N-2-aminoethyl)]ITY[Pen]NR[Dab]T[dDab]KC[Dab]RY-OH; disulfide 8-15; N-terminus and C-terminus assumed): the “Hemolysis at 0.2 g/L” value in data set [1] turned out to be 0%. In addition, the “Klebsiella pneumoniae SSI3010 MIC” value in data set [2] stood at 0.25 µg/mL. Besides, the “Escherichia coli MCR-1 Af 45 MIC” value in data set [3] was 0.0625 µg/mL. Further, the “Escherichia coli ATCC 25922 MIC” value in data set [4] is 0.125 µg/mL.
Take `CC[C@H](C)[C@H](NC(=O)CN(CCN)C(=O)[C@@H](NC(=O)[C@@H]1C[C@@H](O)CN1C(=O)CNCCCCN)C(C)C)C(=O)N[C@H](C(=O)N[C@@H](Cc1ccc(O)cc1)C(=O)N[C@@H]1C(=O)N[C@@H](CC(N)=O)C(=O)N[C@@H](CCCNC(=N)N)C(=O)N[C@@H](CCN)C(=O)N[C@@H]([C@@H](C)O)C(=O)N[C@H](CCN)C(=O)N[C@@H](CCCCN)C(=O)N[C@H](C(=O)N[C@@H](CCN)C(=O)N[C@@H](CCCNC(=N)N)C(=O)N[C@@H](Cc2ccc(O)cc2)C(=O)O)CSSC1(C)C)[C@@H](C)O` [Example 49, Nlys-Hyp-Val-Ndab-Ile-Thr-Tyr-Pen-Asn-Arg-Dab-Thr-^DDab-Lys-Cys-Dab-Arg-Tyr] (H-[Nlys][Hyp]V[Gly(N-2-aminoethyl)]ITY[Pen]NR[Dab]T[dDab]KC[Dab]RY-OH; disulfide 8-15; N-terminus and C-terminus assumed): the “Hemolysis at 0.2 g/L” value in data set [1] came out at 0%. Further, the “Klebsiella pneumoniae SSI3010 MIC” value in data set [2] was 0.25 µg/mL. The “Escherichia coli MCR-1 Af 45 MIC” value in data set [3] was 0.125 µg/mL. The “Escherichia coli ATCC 25922 MIC” value in data set [4] was found to be 0.125 µg/mL.
Consider `CC[C@H](C)[C@H](NC(=O)[C@@H]1C[C@@H](O)CN1C(=O)[C@@H](NC(=O)[C@@H]1C[C@@H](N)CN1C(=O)[C@@H](N)CCCCN)C(C)C)C(=O)N[C@H](C(=O)N[C@@H](Cc1ccc(O)cc1)C(=O)N[C@@H]1C(=O)N[C@@H](CC(N)=O)C(=O)N[C@@H](CCCNC(=N)N)C(=O)N[C@@H](CCN)C(=O)N[C@@H]([C@@H](C)O)C(=O)N[C@H](CCN)C(=O)N[C@@H](CCCCN)C(=O)N[C@H](C(=O)N[C@@H](CCN)C(=O)N[C@@H](CCCNC(=N)N)C(=O)N[C@@H](Cc2ccc(O)cc2)C(=O)O)CSSC1(C)C)[C@@H](C)O` [Example 50, Lys-Pro((4R)NH2)-Val-Hyp-Ile-Thr-Tyr-Pen-Asn-Arg-Dab-Thr-^DDab-Lys-Cys-Dab-Arg-Tyr] (HELM PEPTIDE1{K.[N[C@@H]1C[C@@H](C(=O)[*:2])N([*:1])C1].V.[Hyp].I.T.Y.[Pen].N.R.[Dab].T.[NCC[C@@H](N[*:1])C(=O)[*:2]].K.C.[Dab].R.Y}$PEPTIDE1,PEPTIDE1,8:R3-15:R3$$$V2.0), for which the “Hemolysis at 0.2 g/L” value in data set [1] came out at 0%. Moreover, the “Klebsiella pneumoniae SSI3010 MIC” value in data set [2] came to 0.125 µg/mL. The “Escherichia coli MCR-1 Af 45 MIC” value in data set [3] was 0.0625 µg/mL. The “Escherichia coli ATCC 25922 MIC” value in data set [4] amounted to 0.125 µg/mL.
Take `CC[C@H](C)[C@H](NC(=O)[C@@H]1C[C@@H](O)CN1C(=O)[C@@H](NC(=O)CN(CCN)C(=O)[C@@H](N)CCCCN)C(C)C)C(=O)N[C@H](C(=O)N[C@@H](Cc1ccc(O)cc1)C(=O)N[C@@H]1C(=O)N[C@@H](CC(N)=O)C(=O)N[C@@H](CCCNC(=N)N)C(=O)N[C@@H](CCN)C(=O)N[C@@H]([C@@H](C)O)C(=O)N[C@H](CCN)C(=O)N[C@@H](CCCCN)C(=O)N[C@H](C(=O)N[C@@H](CCN)C(=O)N[C@@H](CCCNC(=N)N)C(=O)N[C@@H](Cc2ccc(O)cc2)C(=O)O)CSSC1(C)C)[C@@H](C)O` [Example 53, Lys-Ndab-Val-Hyp-Ile-Thr-Tyr-Pen-Asn-Arg-Dab-Thr-^DDab-Lys-Cys-Dab-Arg-Tyr] (HELM PEPTIDE1{K.[NCCN(CC(=O)[*:2])[*:1]].V.[Hyp].I.T.Y.[Pen].N.R.[Dab].T.[NCC[C@@H](N[*:1])C(=O)[*:2]].K.C.[Dab].R.Y}$PEPTIDE1,PEPTIDE1,8:R3-15:R3$$$V2.0): the “Hemolysis at 0.2 g/L” value in data set [1] is recorded as 0%. Also, the “Klebsiella pneumoniae SSI3010 MIC” value in data set [2] came out at 0.0625 µg/mL. In data set [3], the “Escherichia coli MCR-1 Af 45 MIC” value is ≤0.03125 µg/mL. In addition, the “Escherichia coli ATCC 25922 MIC” value in data set [4] is 0.0625 µg/mL.
In the case of `CC[C@H](C)[C@H](NC(=O)[C@@H]1C[C@@H](O)CN1C(=O)[C@@H](NC(=O)CN(CCN)C(=O)CNCCN)C(C)C)C(=O)N[C@H](C(=O)N[C@@H](Cc1ccc(O)cc1)C(=O)N[C@@H]1C(=O)N[C@@H](CC(N)=O)C(=O)N[C@@H](CCCNC(=N)N)C(=O)N[C@@H](CCN)C(=O)N[C@@H]([C@@H](C)O)C(=O)N[C@H](CCN)C(=O)N[C@@H](CCCCN)C(=O)N[C@H](C(=O)N[C@@H](CCN)C(=O)N[C@@H](CCCNC(=N)N)C(=O)N[C@@H](Cc2ccc(O)cc2)C(=O)O)CSSC1(C)C)[C@@H](C)O` [Example 54, Ndab-Ndab-Val-Hyp-Ile-Thr-Tyr-Pen-Asn-Arg-Dab-Thr-^DDab-Lys-Cys-Dab-Arg-Tyr] (H-[Gly(N-2-aminoethyl)][Gly(N-2-aminoethyl)]V[Hyp]ITY[Pen]NR[Dab]T[dDab]KC[Dab]RY-OH; disulfide 8-15), the “Hemolysis at 0.2 g/L” value in data set [1] is 0%. In data set [2], the “Klebsiella pneumoniae SSI3010 MIC” value turned out to be 0.25 µg/mL. Besides, in data set [3], the “Escherichia coli MCR-1 Af 45 MIC” value came to 0.125 µg/mL. Moreover, the “Escherichia coli ATCC 25922 MIC” value in data set [4] stood at 0.125 µg/mL.
As for `CC[C@H](C)[C@H](NC(=O)[C@@H]1C[C@@H](O)CN1C(=O)[C@@H](NC(=O)CN(CCN)C(=O)CNCCCN)C(C)C)C(=O)N[C@H](C(=O)N[C@@H](Cc1ccc(O)cc1)C(=O)N[C@@H]1C(=O)N[C@@H](CC(N)=O)C(=O)N[C@@H](CCCNC(=N)N)C(=O)N[C@@H](CCN)C(=O)N[C@@H]([C@@H](C)O)C(=O)N[C@H](CCN)C(=O)N[C@@H](CCCCN)C(=O)N[C@H](C(=O)N[C@@H](CCN)C(=O)N[C@@H](CCCNC(=N)N)C(=O)N[C@@H](Cc2ccc(O)cc2)C(=O)O)CSSC1(C)C)[C@@H](C)O` [Example 55, Norn-Ndab-Val-Hyp-Ile-Thr-Tyr-Pen-Asn-Arg-Dab-Thr-^DDab-Lys-Cys-Dab-Arg-Tyr] (H-[Gly(N(CH2)3NH2)][Gly(N-2-aminoethyl)]V[Hyp]ITY[Pen]NR[Dab]T[dDab]KC[Dab]RY-OH; disulfide 8-15), in data set [1], the “Hemolysis at 0.2 g/L” value was found to be 0%. In addition, the “Klebsiella pneumoniae SSI3010 MIC” value in data set [2] stood at 0.125 µg/mL. In addition, the “Escherichia coli MCR-1 Af 45 MIC” value in data set [3] was ≤0.03125 µg/mL. Moreover, in data set [4], the “Escherichia coli ATCC 25922 MIC” value is ≤0.03125 µg/mL.
In the case of `CC[C@H](C)[C@H](NC(=O)[C@@H]1C[C@@H](O)CN1C(=O)[C@@H](NC(=O)CN(CCN)C(=O)CNCCCCN)C(C)C)C(=O)N[C@H](C(=O)N[C@@H](Cc1ccc(O)cc1)C(=O)N[C@@H]1C(=O)N[C@@H](CC(N)=O)C(=O)N[C@@H](CCCNC(=N)N)C(=O)N[C@@H](CCN)C(=O)N[C@@H]([C@@H](C)O)C(=O)N[C@H](CCN)C(=O)N[C@@H](CCCCN)C(=O)N[C@H](C(=O)N[C@@H](CCN)C(=O)N[C@@H](CCCNC(=N)N)C(=O)N[C@@H](Cc2ccc(O)cc2)C(=O)O)CSSC1(C)C)[C@@H](C)O` [Example 56, Nlys-Ndab-Val-Hyp-Ile-Thr-Tyr-Pen-Asn-Arg-Dab-Thr-^DDab-Lys-Cys-Dab-Arg-Tyr] (H-[Nlys][Gly(N-2-aminoethyl)]V[Hyp]ITY[Pen]NR[Dab]T[dDab]KC[Dab]RY-OH; disulfide 8-15), the “Hemolysis at 0.2 g/L” value in data set [1] stood at 0%. Also, the “Klebsiella pneumoniae SSI3010 MIC” value in data set [2] is 0.125 µg/mL. In data set [3], the “Escherichia coli MCR-1 Af 45 MIC” value was 0.0625 µg/mL. For the same molecule, the “Escherichia coli ATCC 25922 MIC” value in data set [4] was determined as 0.0625 µg/mL.
With `CC[C@H](C)[C@H](NC(=O)[C@@H]1C[C@@H](N)CN1C(=O)[C@@H](NC(=O)[C@@H]1C[C@@H](O)CN1C(=O)[C@@H](N)CCCCN)C(C)C)C(=O)N[C@H](C(=O)N[C@@H](Cc1ccc(O)cc1)C(=O)N[C@@H]1C(=O)N[C@@H](CC(N)=O)C(=O)N[C@@H](CCCNC(=N)N)C(=O)N[C@@H](CCN)C(=O)N[C@@H]([C@@H](C)O)C(=O)N[C@H](CCN)C(=O)N[C@@H](CCCCN)C(=O)N[C@H](C(=O)N[C@@H](Cc2ccc(O)cc2)C(=O)N[C@@H](CCCNC(=N)N)C(=O)N[C@@H](Cc2ccc(O)cc2)C(=O)O)CSSC1(C)C)[C@@H](C)O` [Example 57, Lys-Hyp-Val-Pro((4R)NH2)-Ile-Thr-Tyr-Pen-Asn-Arg-Dab-Thr-^DDab-Lys-Cys-Tyr-Arg-Tyr] (HELM PEPTIDE1{K.[Hyp].V.[N[C@@H]1C[C@@H](C(=O)[*:2])N([*:1])C1].I.T.Y.[Pen].N.R.[Dab].T.[NCC[C@@H](N[*:1])C(=O)[*:2]].K.C.Y.R.Y}$PEPTIDE1,PEPTIDE1,8:R3-15:R3$$$V2.0), in data set [1], the “Hemolysis at 0.2 g/L” value turned out to be 0%. In data set [2], the “Klebsiella pneumoniae SSI3010 MIC” value came out at 0.25 µg/mL. The “Escherichia coli MCR-1 Af 45 MIC” value in data set [3] turned out to be 0.125 µg/mL. Besides, in data set [4], the “Escherichia coli ATCC 25922 MIC” value was 0.25 µg/mL.

For the origin of these results see patent publication US20230295234A1, “ANTIMICROBIAL PEPTIDOMIMETICS” (SPEXIS AG, priority 2020, published 2023).
